Some test systems named below: DU-145 prostate; U251 CNS; COLO 205 colon; ACHN renal; OVCAR-4 ovarian; OVCAR-8 ovarian; NCI-H460 lung; SK-OV-3 ovarian; NCI/ADR-RES ovarian; NCI-H23 lung; IGROV1 ovarian; SK-MEL-5 melanoma; MDA-N.
Holding throughout (test): NCI tumour cell line growth inhibition, 48 h

Our source for the TGI and GI50 values is PubChem BioAssay (NCI).

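96-well plates; 48 h exposure; 5 concentrations. Endpoints by linear interpolation between flanking doses. Not reached: highest tested concentration assigned. Abbreviation: GI50, concentration required for 50% inhibition of growth. TGI: total growth inhibition.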 Where a SMILES comes first, the peptide text is derived from it. The star is where a group is joined. Cbz = O=C(OCc1ccccc1)* Where only a bound is given, the exact number is not on record here.

For `O=[N+]([O-])C(/C(Cl)=C(/Cl)N1CCOCC1)=C1\Nc2ccccc2O1`, the TGI in the experiment with DU-145 prostate, in the experiment with U251 CNS, in the experiment on COLO 205 colon, in the experiment with ACHN renal, in the experiment with OVCAR-4 ovarian and with OVCAR-8 ovarian was > 100 µM each time. Besides, the TGI with NCI-H460 lung, in the experiment with SK-OV-3 ovarian, in the experiment with NCI/ADR-RES ovarian and in the experiment with NCI-H23 lung was > 100 µM throughout.
Turning to `COc1ccc(-c2nc(-c3nc4cc(Cl)c(Cl)cc4[nH]3)c3ccccn23)cc1`, the GI50 in the experiment on IGROV1 ovarian was 3.73 µM; in the experiment on U251 CNS, 3.05 µM; with SK-MEL-5 melanoma it was 2.91 µM; in the experiment with OVCAR-4 ovarian it was 2 µM; with NCI-H460 lung it was 3.01 µM; in the experiment on NCI/ADR-RES ovarian, 3.9 µM. Further, the TGI in the experiment on IGROV1 ovarian was > 100 µM; in the experiment with U251 CNS, > 100 µM; in the experiment with SK-MEL-5 melanoma it was > 100 µM; with OVCAR-4 ovarian, 4.9 µM; in the experiment on NCI-H460 lung, > 100 µM; in the experiment on NCI/ADR-RES ovarian, > 100 µM.
For the molecule `CN(C)c1ccc(-c2c(C#N)c(-c3ccccc3)n(NS(=O)(=O)c3ccccc3)c(=O)c2C#N)cc1`, the TGI in the experiment on IGROV1 ovarian is > 100 µM; with MDA-N, > 100 µM; in the experiment with U251 CNS, > 100 µM; in the experiment with SK-MEL-5 melanoma, 46.8 µM; in the experiment with COLO 205 colon, > 100 µM; with ACHN renal it was > 100 µM. For the same molecule, the TGI in the experiment with OVCAR-4 ovarian, in the experiment with OVCAR-8 ovarian, in the experiment on NCI-H460 lung, with SK-OV-3 ovarian and in the experiment on NCI/ADR-RES ovarian was > 100 µM each time.
For the molecule `COC(=O)/C(=C(/C)c1ccco1)P(=O)(OC)OC`, the TGI in the experiment on IGROV1 ovarian, with DU-145 prostate, in the experiment with U251 CNS, in the experiment with SK-MEL-5 melanoma, in the experiment with COLO 205 colon and in the experiment with ACHN renal was > 100 µM in each case. The TGI with OVCAR-4 ovarian, in the experiment with OVCAR-8 ovarian, with SK-OV-3 ovarian, in the experiment with NCI/ADR-RES ovarian and in the experiment on NCI-H23 lung was > 100 µM in each case.
In the case of `CC1(N2CCOCC2)CC2C(=[N+]1[O-])CCC/C2=N/O` (stereo unspecified), the TGI in the experiment on IGROV1 ovarian, with MDA-N, in the experiment with U251 CNS, in the experiment on SK-MEL-5 melanoma, in the experiment with ACHN renal and with OVCAR-4 ovarian was > 100 µM each time. In addition, the TGI in the experiment with OVCAR-8 ovarian, in the experiment with NCI-H460 lung, in the experiment with SK-OV-3 ovarian, in the experiment with NCI/ADR-RES ovarian and in the experiment with NCI-H23 lung was > 100 µM each time.
As for `CS(=O)(=O)N(CCC#N)c1ccc(/C=C2\N=C(c3ccccc3Cl)OC2=O)cc1`, the TGI in the experiment with IGROV1 ovarian, with U251 CNS, in the experiment on SK-MEL-5 melanoma, in the experiment with COLO 205 colon, with ACHN renal and in the experiment with OVCAR-8 ovarian was > 100 µM throughout. For the same molecule, the TGI in the experiment with NCI-H460 lung, in the experiment on SK-OV-3 ovarian and with NCI-H23 lung was > 100 µM throughout.
Turning to `COc1cc2c(c3nc4ccccc4nc13)-c1ccc(SC)c(=O)cc1[C@@H](NC(C)=O)CC2`, the TGI in the experiment on IGROV1 ovarian is 0.528 µM; with DU-145 prostate it was 0.838 µM; with U251 CNS, > 100 µM; in the experiment on SK-MEL-5 melanoma it was > 100 µM; in the experiment on COLO 205 colon, 0.419 µM; in the experiment on ACHN renal it was > 100 µM. The TGI in the experiment with OVCAR-4 ovarian is > 69.2 µM; in the experiment with NCI-H460 lung, > 100 µM; with SK-OV-3 ovarian it was > 100 µM; with NCI/ADR-RES ovarian, 53 µM; with NCI-H23 lung it was 0.066 µM.
In the case of `COC(=O)C1=C(C(=O)OC)C23CC4CCC2(C(=O)C1O3)C4(C)C` (stereo unspecified), the TGI in the experiment on IGROV1 ovarian, in the experiment on DU-145 prostate, in the experiment on U251 CNS, in the experiment with SK-MEL-5 melanoma, in the experiment with COLO 205 colon and in the experiment on ACHN renal was > 100 µM in each case. Besides, the TGI in the experiment on OVCAR-4 ovarian, in the experiment on OVCAR-8 ovarian, in the experiment on NCI-H460 lung, with SK-OV-3 ovarian and with NCI-H23 lung was > 100 µM in each case.
Take `CCOC(=O)CCC(NC(=O)C(CC(=O)OC)NC(=O)OCc1ccccc1)C(=O)NC(CC(=O)OC)C(=O)NC(CCC(=O)OCC)C(=O)NC(CC(=O)OC)C(=O)NC(CCC(=O)OCC)C(=O)NC(CC(=O)OCC)C(=O)OCC` (stereo unspecified) (Cbz-D(OMe)E(OEt)D(OMe)E(OEt)D(OMe)E(OEt)D(OEt)-OEt; configuration not given here): the TGI in the experiment on IGROV1 ovarian, in the experiment with MDA-N, in the experiment on DU-145 prostate, in the experiment with U251 CNS, in the experiment with SK-MEL-5 melanoma and in the experiment on ACHN renal was > 100 µM each time. Also, the TGI with OVCAR-4 ovarian, with OVCAR-8 ovarian, in the experiment on NCI-H460 lung and with NCI-H23 lung was > 100 µM each time.
As to `O=NN(CC1(O)OCC(O)C(O)C1O)C(Cc1c[nH]c2ccccc12)C(=O)O` (stereo unspecified), the TGI with IGROV1 ovarian, in the experiment on U251 CNS, with SK-MEL-5 melanoma, in the experiment with COLO 205 colon, with ACHN renal and with OVCAR-8 ovarian was > 100 µM throughout. Moreover, the TGI in the experiment with NCI-H460 lung, with SK-OV-3 ovarian and in the experiment on NCI-H23 lung was > 100 µM throughout.
On to `CSC(=Nc1ccc([N+](=O)[O-])cc1C#N)NC(=O)c1ccccc1`, for which the TGI with IGROV1 ovarian, with U251 CNS, with SK-MEL-5 melanoma, with COLO 205 colon, in the experiment on ACHN renal and in the experiment with OVCAR-4 ovarian was > 100 µM each time. Further, the TGI with OVCAR-8 ovarian, with NCI-H460 lung and in the experiment on NCI-H23 lung was > 100 µM throughout.
For `Cc1cccc(-c2cc(=O)c3cccnc3[nH]2)c1`, the TGI with IGROV1 ovarian is > 100 µM; in the experiment on DU-145 prostate, > 100 µM; with U251 CNS, > 100 µM; in the experiment on SK-MEL-5 melanoma it was 52.3 µM; in the experiment on COLO 205 colon it was 7.5 µM; in the experiment with ACHN renal it was > 100 µM. Further, the TGI in the experiment with OVCAR-4 ovarian was > 100 µM; with OVCAR-8 ovarian, 53.6 µM; with NCI-H460 lung, > 100 µM; in the experiment with SK-OV-3 ovarian, > 100 µM; with NCI/ADR-RES ovarian, > 100 µM; with NCI-H23 lung, > 100 µM.
